According to US9879058B2, “Use of compounds that selectively modulate astrocytic release of substances through hemichannels of connexins and pannexins, without influencing gap junctions, for the treatment of psychiatric disorders” (Universidad Andres Bello, priority 2012, dated 2018):
Entries after “also recorded” stand apart in the source; their conditions may differ. No end group written: not given here.

Tests used:
[1] = target: T1, Cx43 gap junction channels (Rattus norvegicus, UniProt P08050); assay: Lucifer yellow dye coupling in astroglial cultures; format: cell-based
T1 construct: endogenous in cells; host or cells: primary hippocampal astrocytes of newborn (PN1) rats
T1 sequence (P08050 whole entry): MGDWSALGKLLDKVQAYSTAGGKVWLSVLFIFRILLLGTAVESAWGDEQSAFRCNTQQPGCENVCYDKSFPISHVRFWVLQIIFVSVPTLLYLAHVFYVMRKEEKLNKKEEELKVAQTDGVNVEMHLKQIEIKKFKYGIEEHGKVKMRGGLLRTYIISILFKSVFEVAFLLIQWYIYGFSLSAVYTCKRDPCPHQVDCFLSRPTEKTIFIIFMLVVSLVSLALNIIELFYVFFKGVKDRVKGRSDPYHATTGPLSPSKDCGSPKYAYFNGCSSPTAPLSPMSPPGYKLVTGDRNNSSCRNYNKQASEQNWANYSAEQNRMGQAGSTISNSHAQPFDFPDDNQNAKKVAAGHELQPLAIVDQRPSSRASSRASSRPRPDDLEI
Description: F. Immunohistochemistry: Brain slices previously fixed in buffered 4% paraformaldehyde and maintained in 30% sucrose were mounted in gelatin coated glass slides. After rinsing with PBS, slices were blocked and permeabilized with 1% bovine serum albumin (BSA, Sigma-Aldrich), and 3% Triton X-100 in PBS for 1 h at room temperature. After rinsing again, sections were incubated overnight at 4° C. with the primary anti-Cx43 antibody (Sigma). Afterwards, sections were rinsed with PBS and incubated for 1 h at 37° C. with Alexa Fluor® 488-conjugated secondary antibody. To identify neurons and astrocytes, sections were incubated overnight at 4° C. with either monoclonal anti-MAP2 (M 4402, Sigma-Aldrich, St-Louis, Mo.) for neurons or polyclonal anti-GFAP (Sigma-Aldrich, St-Louis, Mo.) for astrocytes. Sections were washed and incubated for 1 h at 37° C. with Alexa Fluor® 568-conjugated secondary antibodies. Finally, slides were washed and permanently mounted using ProLong® (invitrogen). Staining specificity was assayed by incubation of sections in the absence of the primary antibody. Samples were examined using laser scanning confocal microscopy on a Fluoview FV1000 (Olympus). G. Primary Cell Cultures: G.1. Astrocyte cultures: Primary astrocyte cultures were prepared from hippocampus of newborn (PN1) rats. […]
J. Dye Coupling: Astrocytes plated on glass coverslips were bathed with recording medium (HCO3-free F-12 medium buffered with 10 mM HEPES, pH 7.2) and intercellular communication mediated by gap junctions was tested by evaluating the transfer to neighboring cells of Lucifer yellow (LY) (Sigma-Aldrich, St-Louis, Mo.) microinjected into one cell. […] The coupling index was calculated as the mean number of cells to which the dye spread. K. Data Analysis: Data were expressed as Mean+SD. Statistical differences were assessed by unpaired student's t-test (Mann-Whitney) and by one-way analysis of variance (ANOVA) for multiple comparisons, followed by Dunns post hoc test, and considered significant when p<0.05. p-values in the text are written as either <0.01% or <0.05%.

[2] = tested on: Sprague Dowley rats; assay: Auditory fear conditioning with microinfusion into the basolateral amygdala; format: in vivo, rat
Description: A. Animals: All procedures involving animals were in accordance to NIH guidelines and with approval of the bioethical committee of the Universidad Andrés Bello. Sprague Dowley rats (˜60 d old, ˜250 g) were caged individually at 22° C., 12/12 h light/dark cycle. The rats remained in their home box throughout the study, and were removed only briefly for drug microinfusion. B. Drugs: TAT-Cx43L2 ([…] (SEQ ID NO: 1), LifeTein, South Plainfield, N.J., USA, >90% purity) was dissolved in PBS to yield final solutions of 1 mM, 100 μM, 10 μM, 1 μM or 100 nM. Unless stated otherwise, the concentration used for microinfusions of TAT-Cx43L2 was 1 mM. As a control, TAT-Cx43L2^H126K/I130N was used at 1 mM. Gap27 (AnaSpec, Fremont, Calif., USA, >95% purity) and Gap27 scramble were dissolved to a final concentration of 1 mM. For the recovery cocktail, 100 mM glutamate (Sigma), D-serine (200 nM), glutamine (100 mM), ATP (100 μM), lactate (10 mM) and glycine (100 nM) were diluted in sterile saline. C. Apparatus: All behavioral essays were performed in a sound attenuating cubicle. Conditioning and tone testing were conducted in different chambers. For conditioning, rats were placed in a Plexiglas chamber with a metal grid floor (40 cm×40 cm×40 cm). The chamber was dimly illuminated by a red light. For testing, rats were placed in a different Plexiglas chamber without the metal grid (60 cm×40 cm) dimly illuminated by a white light bulb. A video camera was mounted at the top of each chamber to allow digital recording throughout the experiments. D. Surgery and histology: Under ketamine/xylazine anesthesia ([…], respectively), rats were stereotaxically implanted with bilateral 22-gauge stainless steel cannulas aimed 1.0 mm above the basolateral amygdala (3.0 mm posterior to Bregma, 5.3 mm lateral to the midline, and 8.0 mm ventral to the skull surface (Paxinos, G., Watson, C. (1998). The Rat Brain in Stereotaxic Coordinates; Press A, editor. San Diego). The cannulas were fixed with acrylic dental cement and secured by 4 skull screws. A stylus was placed inside the guide cannula to prevent clogging. Rats were given at least 7 days to recover before experimental procedures began.
In all experiments, stylus was removed from the guide cannula, and a 28-gauge injection cannula was inserted through the guide cannula, extending 1.0 mm beyond its tip into the BLA. Drugs were infused slowly via the injection cannula, connected by PE20 tubing to Hamilton microsyringes driven by a microinfusion pump. Infusions were of 0.25 μl per hemisphere at a rate of 0.32 μl/min. Following drug infusion, injecting cannulaes were left in place for 10 minutes to allow drug diffusion away from the cannula tip. Cannula placement and maximal diffusion was verified by infusing 0.5 μl of India ink in a group of 5 rats. The maximal diffusion spread observed included only lateral and basal amygdala nuclei. At the end of all experiments, animals were anesthetized as above and perfused intracardially with saline, 4% buffered paraformaldehyde. Brains were extracted and postfixed in 30% sucrose until density equaled that of sucrose. […] Animals with histological lesions beyond the size of the cannula tip and guide cannula diameter were excluded from the analysis.
E. Behavioral procedures: The conditioning is based on the animal learning that a previously neutral stimulus (a conditioned stimulus, CS; e.g. an innocuous sound) becomes predictive of a stressful stimulus (unconditioned stimulus, US; e.g. footshock). In all of experiments, rats were habituated to handling during the 7 recovery days and also habituated to the training and testing chambers for 3 days, 10 min each day. On the conditioning day, the animals were left in the chamber for 3 minutes before beginning of the training. Each training session consisted of 3 CS-US pairings in 30 s intervals. […]

[3] = target: Cx43 gap junction channel (Homo sapiens, UniProt P17302); conditions: cited from earlier work
Chain of Cx43 gap junction channel (P17302 whole entry): as the sequence (P08050 whole entry) above, with E124D, V164I, R243K, T251S, P253A, S257A, P263Q, A344S, V347L counted along it

[4] = 1 mM into BLA 10 min before training

## YGRKKRRQRRRDGANVDMHLKQIEIKKFKYGIEEHGK [TAT-Cx43L2, synthetic cell-permeable peptide corresponding to the Cx43L2 region (aa 119-144) of the cytoplasmic loop of Cx43]
[1]; 1 mM, 10 min incubation, hippocampal astroglial cultures
  astroglial coupling (intracellular transfer of LY): did not affect astroglial coupling
[1]; n=3
  astrocyte coupling incidence: had no effect on astrocyte coupling incidence
  astrocyte coupling index: had no effects on astrocyte coupling index
[2]; [4]
  long term fear memory (freezing to tone) 24 h after training: strongly impaired fear conditioning memory consolidation; also recorded: complete amnesia
  short term memory (freezing to tone between the 3 pairings during training): not affected; also recorded: unaffected short term memory
[2]; microinfusion into BLA
  concentration dependence of amnesic effect: concentration dependent
  lower concentration still capable of inducing amnesic effects: 10 nM
[2]; microinjection into BLA 6 h after learning
  memory when injected 6 h after training: had no effects on memory when injected 6 h after training; also recorded: no memory deficits
[2]; retrained 48 h after the initial conditioning
  learning capacity on retraining: recovered their capacity to learn; also recorded: recovered their learning capacity
[3]
  effect on Cx43 gap junction channel communication, previously shown: without affecting Cx43 gap junction channel communication
